# Structures can show the parent of a compound that is named as a salt.
# How the values were obtained:
# [1] = tested on: T1, NMDA receptor; experiment: NMDA receptor assay (fura-2 cytosolic calcium in cultured rat cerebellar granule cells); format: cell-based; settings: Table I, read-out: fura2 data IC50
# T1 construct: fura2 data IC50; rat cerebellar granule cells
# Procedure: All culture media, antibiotics, and enzymes, with the exception of fetal calf serum (Hyclone Laboratories, Logan, Utah), were purchased from Sigma Chemical Co., St. Louis, Mo. Fura-2/AM was obtained from Molecular Probes, Eugene, Oreg., and was prepared freshly in dimethylsulfoxide (DMSO) before use. Ionomycin (Calbiochem) was stored as a stock solution in DMSO. Nifedipine (Sigma) and nimodipine (RBI) were dissolved in absolute ethanol. […] All other agents were dissolved in phosphate-buffered saline (PBS), and adjusted to pH 7.4
# Preparation of Rat Cerebellar Granule Cell (RCGC) Cultures
# Briefly, primary cultures of cerebellar granule neurons were obtained from 8-day-old rats and plated onto squares of Aclar plastic coated with poly-L-lysine. The plastic squares were placed in 12-well culture plates, and ˜7.5×10^5 cells were added to each well. Cultures were maintained in Eagles's medium containing 25 mM KCl, 10% fetal calf serum, 2 mM glutamine, 100 μg/ml gentamicin, 50 U/ml penicillin, and 50 μg/ml streptomycin at 37° C. in a humid atmosphere of 5%CO2 in air for 24 hr before the addition of cytosine arabinoside (10 μM, final). No changes of culture medium were made until the cells were used for fluorescence recording 6-8 days after plating.
# Measurement of Cytosolic Calcium
# (“Ca^2+-free” buffer contained no added CaCl2 and 30 μM EGTA). The cells were then rinsed with the same buffer, lacking fura-2/AM, and maintained at room temperature until used for measurement of fluorescence, the Aclar squares were transferred into quartz cuvettes containing 2 ml of the HEPES buffer. The cuvette was then placed into a thermostatted holder equipped with a magnetic stirrer in a custom-built spectrofluorimeter (Biomedical Instrumentation Group, University of Pennsylvania, Philadelphia, Pa.). The size of the plastic Aclar square was such as to fit snugly in the cuvette when placed at a diagonal and therefore suspend itself over the spin bar. Fluorescence was measured using excitation and emission wavelengths of 340 and 510 nm, respectively. The amplitude of the evoked increase in fluorescence and subsequent inhibition were recorded and the concentration of [Ca^2+]i was calculated using the formula:
# [Ca^2+]=Kd (F-Fmin)/(Fmax-F) (Eq. 1)
# F=fluorescence amplitude evoked at a particular time point or concentration of compound;
# Fmin=minimum fluorescence determined after the addition of a 2.5 M TRIS/0.3 M EGTA solution;
# Fmax=maximum fluorescence determined following the addition of 7 mM ionomycin in DMSO; and […]
# [2] = biological target: T2, serotonin transporter site (Rattus norvegicus, UniProt P31652); experiment: Serotonin reuptake inhibition assay ([3H]citalopram binding, rat forebrain membranes); settings: Table I; read-out: 5-HT Uptake Ki
# T2 construct: tissue NovaScreen (performed the assay); host or cells: rat forebrain membranes
# Procedure: Monoamine Transporter Minding Assays
# Monoamine transporter binding assays (reuptake inhibition assays) were performed by NovaScreen using standard radioligand binding assays. The transporter binding assays are described briefly below:
# Serotonin Reuptake Inhibition Assay
# Rat forebrain membranes were incubated with 0.7 nM [^3H] citalopram, N-methyl, (70-87 Ci/mmol)in 50 mM Tris-HCl (pH 7.4), 120 mM NaCl, and 5 mM KCl at 25° C. for 60 minutes. […] Reactions were terminated by rapid vacuum filtration onto glass fiber filters.
# [3] = Solubility; format: physicochemical; settings: hydrochloride salt
# T2 sequence (P31652 whole entry): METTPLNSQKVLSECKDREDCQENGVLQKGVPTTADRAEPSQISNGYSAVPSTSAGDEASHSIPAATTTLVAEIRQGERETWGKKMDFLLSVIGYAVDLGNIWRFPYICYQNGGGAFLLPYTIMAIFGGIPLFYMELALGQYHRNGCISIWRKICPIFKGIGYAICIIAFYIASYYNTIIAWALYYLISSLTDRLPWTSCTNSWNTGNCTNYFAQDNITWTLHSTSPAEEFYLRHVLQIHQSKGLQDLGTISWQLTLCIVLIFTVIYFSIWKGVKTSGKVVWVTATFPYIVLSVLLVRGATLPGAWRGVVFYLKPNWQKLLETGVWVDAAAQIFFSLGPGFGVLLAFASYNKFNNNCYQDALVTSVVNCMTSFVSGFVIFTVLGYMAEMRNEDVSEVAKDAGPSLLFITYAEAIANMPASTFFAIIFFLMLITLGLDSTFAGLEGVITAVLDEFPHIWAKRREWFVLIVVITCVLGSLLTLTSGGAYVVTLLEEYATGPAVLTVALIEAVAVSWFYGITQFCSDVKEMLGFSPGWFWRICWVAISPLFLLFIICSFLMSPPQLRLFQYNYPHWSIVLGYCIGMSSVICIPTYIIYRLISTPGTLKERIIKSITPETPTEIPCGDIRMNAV
smiles,measurement,setting,value
"CNCCC(c1cccc(F)c1)c1cccc(F)c1 [Compound 60, N-Methyl-3.,3-bis(3-fluorophenyl)propylamine hydrochloride]",IC50,[1],416 nM
same,Ki,[2],68 nM
same,solubility,"[3]; ethanol, organic solvent or mixture, EtOH",1000 mg/mL
same,solubility,"[3]; water, H2O",2000 mg/mL
